# Measured values reported in patent US6989263B1, “Method for identifying and using compounds that inactivate HIV-1 and other retroviruses by attacking highly conserved zinc fingers in the viral nucleocapsid protein” (The United States of America as represented by the …, priority 1994, dated 2006).
# Tests used:
# p7NC = biological target: T1, p7NC (Human immunodeficiency virus type 1 group M subtype B, UniProt P05888); experiment: HPLC analysis of reaction products of purified p7NC with reagent; format: biochemical, HIV-1
# T1 construct: The NC protein of HIV-1 (MN) p7NC was expressed in E. coli; made in house; host or cells: E. coli (vector pMAL-c)
# In short: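 Purified zinc-reconstituted p7NC (63 μM) incubated 10 min with reagent at 6:1 reagent:protein; products resolved by reversed-phase C-18 HPLC at pH 2 (0.05% TFA) with acetonitrile gradient. Rated fast (full conversion), slow (>10% native remaining) or very slow (>50% native remaining).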
# HIV-1 (MN) p7NC = biological target: T2, HIV-1 (MN) p7NC (Human immunodeficiency virus type 1 group M subtype B, UniProt P05888); experiment: Intrinsic Trp-37 fluorescence quenching of p7NC; format: biochemical; conditions: Trp-37 fluorescence, zinc-reconstituted p7NC
# T2 construct: The NC protein of HIV-1 (MN) p7NC was expressed in E. coli; made in house; host or cells: E. coli (vector pMAL-c)
# From the text: The NC protein of HIV-1 (MN) p7NC was expressed in E. coli. The coding sequence for HIV-1(MN) p7NC was cloned and expressed using an inducible E. coli promoter in the vector pMAL-c (New England Biolabs Inc., Beverly, Mass.). The protein was expressed as a maltose-binding fusion protein and released by proteolysis with Factor Xa. HIV-1(MN) p7NC was purified by HPLC and characterized, including complete amino acid sequence analysis. p7NC was purified by high-pressure liquid chromatography (HPLC) and reconstituted with two equivalents of zinc to generate native protein as described (M. F. Summers et al., Protein Sci. 1, 563 (1992)).
# Coordination of Zn^+2 enhances the intrinsic fluorescence of the single tryptophan (Trp-37) in the second zinc finger. […] The initial phase of the reaction with Cu^+2 (T1/2<20 seconds) gave 70% quenching of the original fluorescence, followed by a much slower phase (T1/2 ca. 6 minutes), resulting in a final limiting quenching of 85%.
# The first quenching phase was a second order reaction, whereas the second phase was independent of protein concentration or oxidizing species.
# proviral DNA synthesis = conditions: cited from earlier work
# HIV-1MN = experiment: Effect of NOBA on intact HIV-1MN (p24, zinc, TCIU of pelleted virus); format: cell-based; conditions: for Zn: pelleted virus
# [1] = biological target: reverse transcriptase enzyme (Human immunodeficiency virus type 1 group M subtype B, UniProt P04585); conditions: cited from earlier work
# lymphocytes = conditions: cited from earlier work
# HV-1 protease = HV-1 protease (Human immunodeficiency virus type 1 group M subtype B, UniProt P04585); conditions: cited from earlier work
# HIV-1 = conditions: incubation of HIV-1; cited from earlier work
# [2] = biological target: HIV-1 CCHC zinc finger array (Human immunodeficiency virus type 1 group M subtype B, UniProt P04591); conditions: incubation of HIV-1; cited from earlier work
smiles,measurement,setting,value
"NC(=O)c1cccc(N=O)c1 [NOBA, 3-nitrosobenzamide]","reaction with purified p7NC (HPLC), in words",p7NC,oxidizes p7NC to products eluting as peaks A and B
same,change in intrinsic fluorescence of p7NC on incubation,HIV-1 (MN) p7NC,rapid biphasic decrease in fluorescence
same,proviral DNA synthesis,proviral DNA synthesis,blocked
same,virus inactivated,"HIV-1MN; 0.03 mM, ratio of NOBA to zinc fingers 50:1",greater than 99%
same,tissue culture infectious unit (TCIU/ml),"HIV-1MN; NOBA 0.03 mM, 2 hours",1.0 × 10^3 TCIU/ml
same,Zn,"HIV-1MN; NOBA 0.03 mM, 2 hours",0.21 µg/mL
same,Zn,"HIV-1MN; NOBA 0.3 mM, 2 hours",0.21 µg/mL
same,Zn,"HIV-1MN; NOBA 3.0 mM, 2 hours",0.11 µg/mL
same,effect on the reverse transcriptase enzyme,[1],without direct impairment
same,bindings of virus to lymphocytes,lymphocytes,did not influence
same,enzymatic activity of HV-1 protease,HV-1 protease,did not influence
same,viral inactivation,HIV-1,viral inactivation
same,zinc loss from the HIV-1 CCHC zinc finger array,[2],loss of zinc
